As a reminder, the EC50 is the concentration that produces a half-maximal response. One may read the LC50 as the concentration that kills 50% of the test population. The low end stands for greater toxicity, the high end for lower toxicity.

Molecules are shown by their SMILES. In brackets after ≈: the same amount, converted by molar mass. Where two headings read alike, the source gives them in different places.

The text below walks through data of publication PMC3397443, “Sinularones A–I, New Cyclopentenone and Butenolide Derivatives from a Marine Soft Coral Sinularia sp. and Their Antifouling Activity” (Marine Drugs, 2012).

For series [1], the system named is larvae of the barnacle Balanus amphitrite. Put plainly: Larval settlement bioassay (antifouling activity). In kind it is in vivo. To be noted: for EC50: Amphibalanus amphitrite, read-out: Balanus amphitrite Larvae EC50. The procedure: (§1) All compounds were tested for their cytotoxicity against a panel of tumor cell lines including human ovarian carcinoma A2780, human lung adenocarcinoma A549, human gastric carcinoma BGC823, human hepatoma Bel7402, and human colonic carcinoma HCT-8. […] In order to detect whether these compounds play a role for ecological functions, the test for antifouling activity against the larvae of the barnacle Balanus amphitrite was performed. […] A primary discussion of structure-activity relationship implied that α,β-unsaturated 2,3-dimethyl-γ-lactone is a functional unit for anti-barnacle.
(§2) Adults of the barnacle Balanus amphitrite Darwin were exposed to air for more than 6 h, and then were placed in a container filled with fresh 0.22 µm filtered sea water (FSW) to release nauplii. The collected nauplii were reared to cyprid stage according to the method described by Thiyagarajan et al.. When kept at 26–28 °C and fed with Chaetoceros gracilis, larvae developed to cyprids within four days. Fresh cyprids were used in the tests.

The nature of series [2]: Toxicity against barnacle larvae (LC50). The settings on record: Balanus amphitrite (barnacle), in vivo; concentration required to kill 50% of larvae of a tested population. On the procedure: as §1, §2
Setting [3] is: concentration where 50% of larval population was inhibited to settle compared to control, cyprids.

As for `CC(=O)CC/C=C(/C)C[C@@H]1CC(C)(C)CC1=O` [Compound 1, Sinularone A], the EC50 in series [1] (setting [3]) stood at 13.9 µg/mL (≈ 58.6 µM). Besides, in series [2], the 50% lethal concentration (LC50) was more than 50 µg/mL.

On to `CCCCC[C@@]1(O)C(C)=C(C)C(=O)[C@H]1CC(=O)OCC` [Compound 2, Sinularone B], for which the EC50 in series [1] (setting [3]) turned out to be 23.5 µg/mL (≈ 83.2 µM). Moreover, the LC50 in series [2] was more than 50 µg/mL.

`CCOC(=O)CC[C@]1(O)OC(=O)C(C)=C1C` [Compound 7, Sinularone G]: in series [1] (setting [3]), the EC50 came out at 18.6 µg/mL (≈ 81.7 µM). Moreover, in series [2], the LC50 is more than 50 µg/mL.

As for `CCO[C@@]1(CCC(=O)OC)OC(=O)C(C)=C1C` [Compound 8, Sinularone H], the EC50 in series [1] (setting [3]) amounted to 21.4 µg/mL (≈ 88.3 µM). The LC50 in series [2] is more than 50 µg/mL.

For the molecule `CCOC(=O)CCCCCCCCCCCC[C@]1(O)OC(=O)C(C)=C1C` [Compound 9, Sinularone I], in series [1] (setting [3]), the EC50 came to 12.6 µg/mL (≈ 34.1 µM). Besides, the LC50 in series [2] is more than 50 µg/mL.

As to `CCCCC[C@]1(O)OC(=O)C(C)=C1C` [Compound 10, (S)-4-hydroxy-2,3-dimethyl-4-pentyl-γ-lactone], the EC50 in series [1] came out at 3.84 µg/mL (≈ 19.4 µM). The “antifouling activity (in words)” value in series [1] (against the barnacle Balanus amphitrite) is recorded as “the most active”. In series [2], this molecule yielded an LC50 of more than 50 µg/mL.
